Results on 14 compounds are retold here after patent US20210179680A1, “POLYPEPTIDE, DERIVATIVES THEREOF, AND APPLICATION THEREOF IN PREPARATION OF DRUGS HAVING RESISTANCE TO PULMONARY FIBROSIS” (priority 2016, published 2021).

Bridge positions count the residues as written; N and C are the ends. Square brackets hold non-standard residues; d marks the D form. Peptide text beside a SMILES is read from it. S5 = C=CCCC[C@](C)(N)C(=O)O

The test system of the first experiment is mice with bleomycin-induced pulmonary fibrosis. As to the kind of experiment: HE staining pathomorphology and inflammatory score of bleomycin-induced pulmonary fibrosis. It counts as in vivo, C57BL/6 mice. The conditions noted are these: Table 3 groups, 2 mg/kg i.p., after 28 days, grade 0-5. On the procedure: Male C57BL/6 mice were fasted overnight, then anesthetized with 45 mg/kg sodium pentobarbital by injection intraperitoneally (i.p.), and intratracheally injected with bleomycin at a dose of 3 U/kg. The specific operation steps are as follows: cut the neck skin of the mouse with as little trauma as possible, expose the trachea with the assistance of elbow ophthalmic forceps, puncture the trachea and inject about 50 μL of bleomycin into the trachea with a microsyringe, rotate the mouse quickly and stand it upright for 5 minutes in order to make bleomycin evenly enter the left and right lobe, thereby constructing an animal model. The whole operation was performed at a surgical table at about […]. Mice in the sham operation group were intratracheally injected with an equal amount of physiological saline for injection.
General tissue changes and tissue products can be visualized by HE staining method, namely Hematoxylin and Eosin staining method, which is the most commonly used staining method for morphology. Among them, hematoxylin dyeing solution is an alkaline dyeing solution, which mainly makes the chromatin in the nucleus and the ribosome in the cytoplasm purple blue; eosin is an acid dye, which mainly makes the components in the cytoplasm and extracellular matrix red. Pulmonary fibrosis models were made according to the method described in Example 2 and administered in groups according to Table 3. After 28 days, the right lower lobe of lung tissue of the experimental animals was taken, and fixed with 4% (v/v) paraformaldehyde and embedded in paraffin. Section was performed on the largest cross-section of the paraffin block in which the lung tissue embedded, and basic pathological changes was observed through HE staining. […] The administration of polypeptides S1-S11 can reduce lung inflammation caused by bleomycin, and effectively ameliorate lung injury and restore normal lung structure.
The inflammatory grading was observed according to the results of HE staining, and the criteria were as follows (grade 0-5): grade “0”: normal tissue; grade “1”: extremely small inflammatory changes; grade “2”: mild to moderate inflammatory changes without apparent destruction of lung tissue structure; grade “3”: moderate inflammatory injury (thickening of alveolar diaphragm); grade “4”: moderate to severe inflammatory injury with formation of tissue mass, or the normal structure of lung tissue was destroyed by localized pneumonia area; grade “5”: severe inflammatory injury, severe destruction of the localized lung tissue structure, resulting in closure of lumen.
Pulmonary fibrosis models were made according to the method described in Example 2 and administered in groups according to Table 9. After 28 days, the right lower lobe of lung tissue of the experimental animals was taken, and fixed by 4% (v/v) paraformaldehyde and embedded in paraffin. Section was performed on the largest cross-section of the paraffin block in which the lung tissue embedded, and basic pathological changes was observed through HE staining.
Consider `CSCC[C@@H]1NC(=O)[C@@](C)(NC(=O)[C@@H](N)Cc2c[nH]cn2)CCCC=CCCC[C@@](C)(C(=O)N[C@H](C(=O)N[C@@H](CS)C(=O)N[C@@H](C)C(=O)N[C@@H](CCCCN)C(=O)N[C@@H](CCCCN)C(=O)N[C@@H](CC(C)C)C(=O)N[C@@H](CCCCN)C(=O)N[C@@H](CCCCN)C(=O)N[C@@H](CCCNC(=N)N)C(=O)O)[C@@H](C)O)NC(=O)[C@H](CS)NC(=O)[C@H](C)NC1=O` [S2, His-S5-Met-Ala-Cys-S5-Thr-Cys-Ala-Lys-Lys-Leu-Lys-Lys-Arg] (H-H[S5]MAC[S5]TCAKKLKKR-OH; staple 2-6; N-terminus and C-terminus assumed), for which the Inflammatory score is 2.667.

In turn, `CSCC[C@H](NC(=O)[C@H](CC(C)C)NC(=O)[C@@H](N)Cc1c[nH]cn1)C(=O)N[C@@H](C)C(=O)N[C@@H](CS)C(=O)N[C@@H](Cc1ccccc1)C(=O)N[C@H](C(=O)N[C@@H](CS)C(=O)N[C@@H](C)C(=O)N[C@@H](CCCCN)C(=O)N[C@@H](CCCCN)C(=O)N[C@@H](CC(C)C)C(=O)N[C@@H](CCCCN)C(=O)N[C@@H](CCCCN)C(=O)N[C@@H](CCCNC(=N)N)C(=O)O)[C@@H](C)O` [MR2] (H-HLMACFTCAKKLKKR-OH; N-terminus and C-terminus assumed) displayed an Inflammatory score of 4.

In the case of `CSCC[C@H](NC(=O)[C@H](CC(C)C)NC(=O)[C@@H](N)Cc1c[nH]cn1)C(=O)N[C@@H](C)C(=O)N[C@@H](CS)C(=O)N[C@@H](Cc1ccccc1)C(=O)N[C@@]1(C)CCCC=CCCC[C@@](C)(C(=O)N[C@@H](CC(C)C)C(=O)N[C@@H](CCCCN)C(=O)N[C@@H](CCCCN)C(=O)N[C@@H](CCCNC(=N)N)C(=O)O)NC(=O)[C@H](CCCCN)NC(=O)[C@H](C)NC(=O)[C@H](CS)NC1=O` [S7, His-Leu-Met-Ala-Cys-Phe-S5-Cys-Ala-Lys-S5-Leu-Lys-Lys-Arg] (H-HLMACF[S5]CAK[S5]LKKR-OH; staple 7-11; N-terminus and C-terminus assumed), the Inflammatory score was found to be 2. `CSCC[C@H](NC(=O)[C@H](CC(C)C)NC(=O)[C@@H](N)Cc1c[nH]cn1)C(=O)N[C@@H](C)C(=O)N[C@@H](CS)C(=O)N[C@@H](Cc1ccccc1)C(=O)N[C@H](C(=O)N[C@@H](CS)C(=O)N[C@@H](C)C(=O)N[C@@]1(C)CCCC=CCCC[C@@](C)(C(=O)N[C@@H](CCCNC(=N)N)C(=O)O)NC(=O)[C@H](CCCCN)NC(=O)[C@H](CC(C)C)NC(=O)[C@H](CCCCN)NC1=O)[C@@H](C)O` [S10, His-Leu-Met-Ala-Cys-Phe-Thr-Cys-Ala-S5-Lys-Leu-Lys-S5-Arg] (H-HLMACFTCA[S5]KLK[S5]R-OH; staple 10-14; N-terminus and C-terminus assumed) displayed an Inflammatory score of 3. On the same count and under the same terms, under `CSCC[C@H](NC(=O)[C@H](CC(C)C)NC(=O)[C@@H](N)Cc1c[nH]cn1)C(=O)N[C@@H](C)C(=O)N[C@@H](CS)C(=O)N[C@@H](Cc1ccccc1)C(=O)N[C@H](C(=O)N[C@@H](CS)C(=O)N[C@@]1(C)CCCC=CCCC[C@@](C)(C(=O)N[C@@H](CCCCN)C(=O)N[C@@H](CCCNC(=N)N)C(=O)O)NC(=O)[C@H](CC(C)C)NC(=O)[C@H](CCCCN)NC(=O)[C@H](CCCCN)NC1=O)[C@@H](C)O` [S9, His-Leu-Met-Ala-Cys-Phe-Thr-Cys-S5-Lys-Lys-Leu-S5-Lys-Arg] (H-HLMACFTC[S5]KKL[S5]KR-OH; staple 9-13; N-terminus and C-terminus assumed) stands 2.167; under `CSCC[C@H](NC(=O)[C@H](CC(C)C)NC(=O)[C@@H](N)Cc1c[nH]cn1)C(=O)N[C@@H](C)C(=O)N[C@@H](CS)C(=O)N[C@@H](Cc1ccccc1)C(=O)N[C@H](C(=O)N[C@@H](CS)C(=O)N[C@@H](C)C(=O)N[C@@H](CCCCN)C(=O)N[C@@]1(C)CCCC=CCCC[C@@](C)(C(=O)O)NC(=O)[C@H](CCCCN)NC(=O)[C@H](CCCCN)NC(=O)[C@H](CC(C)C)NC1=O)[C@@H](C)O` [S11, His-Leu-Met-Ala-Cys-Phe-Thr-Cys-Ala-Lys-S5-Leu-Lys-Lys-S5] (H-HLMACFTCAK[S5]LKK[S5]-OH; staple 11-15; N-terminus and C-terminus assumed), 3.

In turn, `CSCC[C@H](NC(=O)[C@H](CC(C)C)NC(=O)[C@@H](N)Cc1c[nH]cn1)C(=O)N[C@@H](C)C(=O)N[C@@]1(C)CCCC=CCCC[C@@](C)(C(=O)N[C@@H](CCCCN)C(=O)N[C@@H](CCCCN)C(=O)N[C@@H](CC(C)C)C(=O)N[C@@H](CCCCN)C(=O)N[C@@H](CCCCN)C(=O)N[C@@H](CCCNC(=N)N)C(=O)O)NC(=O)[C@H](CS)NC(=O)[C@H]([C@@H](C)O)NC(=O)[C@H](Cc2ccccc2)NC1=O` [S5, His-Leu-Met-Ala-S5-Phe-Thr-Cys-S5-Lys-Lys-Leu-Lys-Lys-Arg] (H-HLMA[S5]FTC[S5]KKLKKR-OH; staple 5-9; N-terminus and C-terminus assumed) returned an Inflammatory score of 2.333. Still for that read-out and setting: under `CC(C)C[C@H](NC(=O)[C@H](CCCCN)NC(=O)[C@H](CCCCN)NC(=O)[C@H](C)NC(=O)[C@H](CS)NC(=O)[C@]1(C)CCCC=CCCC[C@](C)(NC(=O)[C@H](CC(C)C)NC(=O)[C@@H](N)Cc2c[nH]cn2)C(=O)N[C@@H](C)C(=O)N[C@@H](CS)C(=O)N[C@@H](Cc2ccccc2)C(=O)N1)C(=O)N[C@@H](CCCCN)C(=O)N[C@@H](CCCCN)C(=O)N[C@@H](CCCNC(=N)N)C(=O)O` [S3, His-Leu-S5-Ala-Cys-Phe-S5-Cys-Ala-Lys-Lys-Leu-Lys-Lys-Arg] (H-HL[S5]ACF[S5]CAKKLKKR-OH; staple 3-7; N-terminus and C-terminus assumed) stands 2.5; under `CSCC[C@H](NC(=O)[C@H](CC(C)C)NC(=O)[C@@H](N)Cc1c[nH]cn1)C(=O)N[C@@H](C)C(=O)N[C@@H](CS)C(=O)N[C@@]1(C)CCCC=CCCC[C@@](C)(C(=O)N[C@@H](CCCCN)C(=O)N[C@@H](CC(C)C)C(=O)N[C@@H](CCCCN)C(=O)N[C@@H](CCCCN)C(=O)N[C@@H](CCCNC(=N)N)C(=O)O)NC(=O)[C@H](C)NC(=O)[C@H](CS)NC(=O)[C@H]([C@@H](C)O)NC1=O` [S6, His-Leu-Met-Ala-Cys-S5-Thr-Cys-Ala-S5-Lys-Leu-Lys-Lys-Arg] (H-HLMAC[S5]TCA[S5]KLKKR-OH; staple 6-10; N-terminus and C-terminus assumed), 3; under `CSCC[C@@H]1NC(=O)[C@H](CC(C)C)NC(=O)[C@@](C)(N)CCCC=CCCC[C@@](C)(C(=O)N[C@@H](Cc2ccccc2)C(=O)N[C@H](C(=O)N[C@@H](CS)C(=O)N[C@@H](C)C(=O)N[C@@H](CCCCN)C(=O)N[C@@H](CCCCN)C(=O)N[C@@H](CC(C)C)C(=O)N[C@@H](CCCCN)C(=O)N[C@@H](CCCCN)C(=O)N[C@@H](CCCNC(=N)N)C(=O)O)[C@@H](C)O)NC(=O)[C@H](C)NC1=O` [S1, S5-Leu-Met-Ala-S5-Phe-Thr-Cys-Ala-Lys-Lys-Leu-Lys-Lys-Arg] (H-[S5]LMA[S5]FTCAKKLKKR-OH; staple 1-5; N-terminus and C-terminus assumed), 2.667.

With `CSCC[C@H](NC(=O)[C@H](CC(C)C)NC(=O)[C@@H](N)Cc1c[nH]cn1)C(=O)N[C@@]1(C)CCCC=CCCC[C@@](C)(C(=O)N[C@@H](C)C(=O)N[C@@H](CCCCN)C(=O)N[C@@H](CCCCN)C(=O)N[C@@H](CC(C)C)C(=O)N[C@@H](CCCCN)C(=O)N[C@@H](CCCCN)C(=O)N[C@@H](CCCNC(=N)N)C(=O)O)NC(=O)[C@H]([C@@H](C)O)NC(=O)[C@H](Cc2ccccc2)NC(=O)[C@H](CS)NC1=O` [S4, His-Leu-Met-S5-Cys-Phe-Thr-S5-Ala-Lys-Lys-Leu-Lys-Lys-Arg] (H-HLM[S5]CFT[S5]AKKLKKR-OH; staple 4-8; N-terminus and C-terminus assumed), the Inflammatory score came to 2.833.

Staying with this experiment, now noted: Table 9 groups, 2 mg/kg i.p., after 28 days, grade 0-5.
On to “S21: chimeric polypeptide Antp-MR2, amino acid sequence SEQ ID NO: 21 (RQIKIWFQNRRMKWKKGGHLMACFTCAKKLKKR; chimeric polypeptide Antp-MR2 S21)”, for which the Inflammatory scoring turned out to be 2.667. The same measure, in the same setting: as for “S19: chimeric polypeptide Pep2-MR2, amino acid sequence SEQ ID NO: 19 (HLYVSPWGGHLMACFTCAKKLKKR; chimeric polypeptide Pep2-MR2 S19)”, the figure is 1.833; as for “S20: chimeric polypeptide TAT-MR2, amino acid sequence SEQ ID NO: 20 (YGRKKRRQRRRGGHLMACFTCAKKLKKR; chimeric polypeptide TAT-MR2 S20)”, 2.333.
